Data on 26 compounds can be found in the supplement of paper PMC11424490.

Assay [1] has as its system SW837. Put plainly: combination cScore with sotorasib (Bliss gap around IC50) (%PoC); higher = stronger additive effect. Put shortly: (§1)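 NCI-H2122, NCI-H358 and SW837 cells (500 or 800 per well, 384-well plates) were dosed in concentration matrices after 24 h and grown 72 h, or 144 h for SW837. CellTiter-Glo luminescence was normalised to vehicle wells as percent of control and fitted with four-parameter curves. The score averages the Bliss-independence gap (expected minus measured viability) over a field around both monotherapy IC50s, or at the top concentrations when no IC50 was reached.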

Assay [2] relates to NCI-H2122. The assay is described as above. The method, boiled down: as §1

On to `C/C=C1\NC(=O)[C@H]2CSSCC/C=C/[C@H](CC(=O)N[C@H](C(C)C)C(=O)N2)OC(=O)[C@H](C(C)C)NC1=O` [Romidepsin] + C=CC(=O)N1CCN(c2nc(=O)n(-c3c(C)ccnc3C(C)C)c3nc(-c4c(O)cccc4F)c(F)cc23)[C@@H](C)C1 [sotorasib], for which the entries for the “combination cScore with sotorasib” value in assay [1] and in assay [2] were 12.7 and 5.9, respectively.

With `CC(C)Nc1cc(-c2c[nH]c(C(=O)N[C@H](CO)c3cccc(Cl)c3)c2)c(Cl)cn1` [Ulixertinib] + C=CC(=O)N1CCN(c2nc(=O)n(-c3c(C)ccnc3C(C)C)c3nc(-c4c(O)cccc4F)c(F)cc23)[C@@H](C)C1 [sotorasib], the “combination cScore with sotorasib” value in assay [1] is 3.35; in assay [2], -4.67.

Take `Cn1nnc2c(C(N)=O)ncn2c1=O` [Temozolomide] + C=CC(=O)N1CCN(c2nc(=O)n(-c3c(C)ccnc3C(C)C)c3nc(-c4c(O)cccc4F)c(F)cc23)[C@@H](C)C1 [sotorasib]: the “combination cScore with sotorasib” value in assay [1] was -4.91; in assay [2] it was 6.39.

On to `CCC1=C[C@@H]2CN(C1)Cc1c([nH]c3ccccc13)[C@@](C(=O)OC)(c1cc3c(cc1OC)N(C)[C@H]1[C@@](O)(C(=O)OC)[C@H](OC(C)=O)[C@]4(CC)C=CCN5CC[C@]31[C@@H]54)C2` [Vinorelbine] + C=CC(=O)N1CCN(c2nc(=O)n(-c3c(C)ccnc3C(C)C)c3nc(-c4c(O)cccc4F)c(F)cc23)[C@@H](C)C1 [sotorasib], for which the “combination cScore with sotorasib” value in assay [1] was determined as 4.13; in assay [2], 1.79.

As for `CC[C@H](C)C(=O)O[C@H]1C[C@@H](C)C=C2C=C[C@H](C)[C@H](CC[C@@H]3C[C@@H](O)CC(=O)O3)[C@H]21` [Lovastatin] + C=CC(=O)N1CCN(c2nc(=O)n(-c3c(C)ccnc3C(C)C)c3nc(-c4c(O)cccc4F)c(F)cc23)[C@@H](C)C1 [sotorasib], the “combination cScore with sotorasib” value in assay [1] was -0.46; in assay [2] it was -1.83.

For the compound `CCOC(=O)CCNc1cc(N2CCc3ccccc3CC2)nc(-c2ccccn2)n1` [GSK-J4] + C=CC(=O)N1CCN(c2nc(=O)n(-c3c(C)ccnc3C(C)C)c3nc(-c4c(O)cccc4F)c(F)cc23)[C@@H](C)C1 [sotorasib], the “combination cScore with sotorasib” value in assay [1] is -0.52; in assay [2], -0.59.

Regarding `C[C@H](Cc1ccc(O)c(O)c1)[C@@H](C)Cc1ccc(O)c(O)c1` [Masoprocol] + C=CC(=O)N1CCN(c2nc(=O)n(-c3c(C)ccnc3C(C)C)c3nc(-c4c(O)cccc4F)c(F)cc23)[C@@H](C)C1 [sotorasib], the “combination cScore with sotorasib” value in assay [1] is 1.64; in assay [2] it was -1.02.

`CN(C)CCCC(=O)Nc1n[nH]c2nnc(-c3ccccc3)cc12` + C=CC(=O)N1CCN(c2nc(=O)n(-c3c(C)ccnc3C(C)C)c3nc(-c4c(O)cccc4F)c(F)cc23)[C@@H](C)C1 [sotorasib]: the “combination cScore with sotorasib” value in assay [1] was -4.53; in assay [2], -11.8.

Consider `COc1cc(OC)c(/C=C/S(=O)(=O)Cc2ccc(OC)c(NCC(=O)O)c2)c(OC)c1` [Rigosertib] + C=CC(=O)N1CCN(c2nc(=O)n(-c3c(C)ccnc3C(C)C)c3nc(-c4c(O)cccc4F)c(F)cc23)[C@@H](C)C1 [sotorasib], for which the results for the “combination cScore with sotorasib” value in assay [1] and in assay [2] were 13.3 and 2.41, respectively.

On to `CNCc1ccc(-c2cc(-c3nc(-c4ccc(S(=O)(=O)C(C)C)cc4)cnc3N)on2)cc1` [VE-822/VX-970] + C=CC(=O)N1CCN(c2nc(=O)n(-c3c(C)ccnc3C(C)C)c3nc(-c4c(O)cccc4F)c(F)cc23)[C@@H](C)C1 [sotorasib], for which the “combination cScore with sotorasib” value in assay [1] is -0.45; in assay [2], 2.89.

For the compound `CC(C)(C)c1cc(NC(=O)Nc2ccc(-c3cn4c(n3)sc3cc(OCCN5CCOCC5)ccc34)cc2)no1` [Quizartinib] + C=CC(=O)N1CCN(c2nc(=O)n(-c3c(C)ccnc3C(C)C)c3nc(-c4c(O)cccc4F)c(F)cc23)[C@@H](C)C1 [sotorasib], the entries for the “combination cScore with sotorasib” value in assay [1] and in assay [2] were -4.13 and -1.22, respectively.

Take `c1ccc(-c2nn3c(c2-c2ccnc4cc(OCCN5CCOCC5)ccc24)CCC3)nc1` + C=CC(=O)N1CCN(c2nc(=O)n(-c3c(C)ccnc3C(C)C)c3nc(-c4c(O)cccc4F)c(F)cc23)[C@@H](C)C1 [sotorasib]: the figures for the “combination cScore with sotorasib” value in assay [1] and in assay [2] were 8.58 and 8.94, respectively.

With `O=[N+]([O-])c1ccc(NCCNc2ncc(-c3ncc[nH]3)c(-c3ccc(Cl)cc3Cl)n2)nc1` + C=CC(=O)N1CCN(c2nc(=O)n(-c3c(C)ccnc3C(C)C)c3nc(-c4c(O)cccc4F)c(F)cc23)[C@@H](C)C1 [sotorasib], the “combination cScore with sotorasib” value in assay [1] was 3.71; in assay [2] it was -9.14.

In the case of `CCc1cccc(CC)c1NC(=O)c1nn(C)c2c1CCc1cnc(Nc3ccc(C(=O)NC4CCN(C)CC4)cc3OC(F)(F)F)nc1-2` [NMS-P715] + C=CC(=O)N1CCN(c2nc(=O)n(-c3c(C)ccnc3C(C)C)c3nc(-c4c(O)cccc4F)c(F)cc23)[C@@H](C)C1 [sotorasib], the “combination cScore with sotorasib” value amounted to 13.2 in assay [1] and 2.28 in assay [2].

As for `Cc1ccc(NC(=O)c2ccnc(C(F)(F)F)c2)cc1-c1cc(OCCO)nc(N2CCOCC2)c1` [LXH-254] + C=CC(=O)N1CCN(c2nc(=O)n(-c3c(C)ccnc3C(C)C)c3nc(-c4c(O)cccc4F)c(F)cc23)[C@@H](C)C1 [sotorasib], the “combination cScore with sotorasib” value in assay [1] amounted to 5.53; in assay [2], 7.11.

For the compound `CO[C@H]1/C=C/C[C@H](C)[C@@H](C)S(=O)(=O)NC(=O)c2ccc3c(c2)N(C[C@@H]2CC[C@H]21)C[C@@]1(CCCc2cc(Cl)ccc21)CO3` [AMG176] + C=CC(=O)N1CCN(c2nc(=O)n(-c3c(C)ccnc3C(C)C)c3nc(-c4c(O)cccc4F)c(F)cc23)[C@@H](C)C1 [sotorasib], the entries for the “combination cScore with sotorasib” value in assay [1] and in assay [2] were 2.13 and 17.3, respectively.

For `CCN1CCN(c2ccc(Nc3cc(N(C)C(=O)Nc4c(Cl)c(OC)cc(OC)c4Cl)ncn3)cc2)CC1` [BGJ398] + C=CC(=O)N1CCN(c2nc(=O)n(-c3c(C)ccnc3C(C)C)c3nc(-c4c(O)cccc4F)c(F)cc23)[C@@H](C)C1 [sotorasib], the “combination cScore with sotorasib” value in assay [1] stood at 12.1; in assay [2], 2.52.

For the compound `Cc1ccc(NC(=O)c2ccc(CN3CCN(C)CC3)cc2)cc1Nc1nccc(-c2cccnc2)n1` [Imatinib] + C=CC(=O)N1CCN(c2nc(=O)n(-c3c(C)ccnc3C(C)C)c3nc(-c4c(O)cccc4F)c(F)cc23)[C@@H](C)C1 [sotorasib], the “combination cScore with sotorasib” value is 2.47 in assay [1] and -1.79 in assay [2].

On to `Cc1cc(Nc2nc(N[C@@H](C)c3ncc(F)cn3)ncc2Cl)[nH]n1` [AZD-1480] + C=CC(=O)N1CCN(c2nc(=O)n(-c3c(C)ccnc3C(C)C)c3nc(-c4c(O)cccc4F)c(F)cc23)[C@@H](C)C1 [sotorasib], for which the “combination cScore with sotorasib” value in assay [1] was -5.71; in assay [2], 5.41.

On to `O=C(c1ccc(F)c(F)c1Nc1ccc(I)cc1F)N1CC(O)([C@@H]2CCCCN2)C1` [Cobimetinib] + C=CC(=O)N1CCN(c2nc(=O)n(-c3c(C)ccnc3C(C)C)c3nc(-c4c(O)cccc4F)c(F)cc23)[C@@H](C)C1 [sotorasib], for which the “combination cScore with sotorasib” value stood at 11.3 in assay [1] and 5.25 in assay [2].

In the case of `COc1cc2nccc(Oc3ccc(NC(=O)C4(C(=O)Nc5ccc(F)cc5)CC4)cc3)c2cc1OC` [XL-184] + C=CC(=O)N1CCN(c2nc(=O)n(-c3c(C)ccnc3C(C)C)c3nc(-c4c(O)cccc4F)c(F)cc23)[C@@H](C)C1 [sotorasib], the “combination cScore with sotorasib” value in assay [1] is 14; in assay [2], 11.7.

Regarding `Cc1ncc(NC(=O)c2cccc(C(F)(F)F)c2)cc1-c1cnc(OC2CCOCC2)c(N2CCOCC2)c1` [RAF-709] + C=CC(=O)N1CCN(c2nc(=O)n(-c3c(C)ccnc3C(C)C)c3nc(-c4c(O)cccc4F)c(F)cc23)[C@@H](C)C1 [sotorasib], the “combination cScore with sotorasib” value in assay [1] was found to be 5.38; in assay [2] it was 3.48.

For `CN(Cc1cnc2nc(N)nc(N)c2n1)c1ccc(C(=O)N[C@@H](CCC(=O)O)C(=O)O)cc1` [Methotrexate] + C=CC(=O)N1CCN(c2nc(=O)n(-c3c(C)ccnc3C(C)C)c3nc(-c4c(O)cccc4F)c(F)cc23)[C@@H](C)C1 [sotorasib], the “combination cScore with sotorasib” value in assay [1] is -3.51; in assay [2] it was -3.03.

Turning to `Nc1ncn([C@@H]2O[C@H](CO)[C@@H](O)[C@H]2O)c(=O)n1` [Azacitidine] + C=CC(=O)N1CCN(c2nc(=O)n(-c3c(C)ccnc3C(C)C)c3nc(-c4c(O)cccc4F)c(F)cc23)[C@@H](C)C1 [sotorasib], the results for the “combination cScore with sotorasib” value in assay [1] and in assay [2] were 18.6 and 3.93, respectively.

As to `Cc1[nH]c(/C=C2\C(=O)Nc3ccc(S(=O)(=O)Cc4c(Cl)cccc4Cl)cc32)c(C)c1C(=O)N1CCC[C@@H]1CN1CCCC1` + C=CC(=O)N1CCN(c2nc(=O)n(-c3c(C)ccnc3C(C)C)c3nc(-c4c(O)cccc4F)c(F)cc23)[C@@H](C)C1 [sotorasib], the “combination cScore with sotorasib” value is -0.04 in assay [1] and 0.62 in assay [2].

Turning to `CC(=O)[C@]1(O)Cc2c(O)c3c(c(O)c2[C@@H](O[C@H]2C[C@H](N)[C@H](O)[C@H](C)O2)C1)C(=O)c1ccccc1C3=O` [Idarubicin] + C=CC(=O)N1CCN(c2nc(=O)n(-c3c(C)ccnc3C(C)C)c3nc(-c4c(O)cccc4F)c(F)cc23)[C@@H](C)C1 [sotorasib], the “combination cScore with sotorasib” value came out at 5.83 in assay [1] and 8.08 in assay [2].
